The text below walks through data of US10426841B2, “Combination of drugs with protein-binding prodrugs” (VERGELL MEDICAL S.A., priority 2010, dated 2019).

Data set [1] has as its system human ovarian cancer xenografts (A2780). Description: Antitumor efficacy and tolerability in the ovarian carcinoma A2780 xenograft model. As to conditions: for toxic death: 8 mice per group; for RTV day 30 (relative tumor volume): * significant to Doxorubicin; for antitumor efficacy (in words): doxorubicin 2×8 mg/kg up to day 30. The procedure: In order to evaluate the in vivo antitumor efficacy of a combination of doxorubicin with DOXO-EMCH in tumor-bearing mice, a direct comparison was made with a group treated with doxorubicin (2×8 mg/kg body weight) or DOXO-EMCH (3×24 mg/kg body weight doxorubicin equivalents) at their respective MTDs. For the combination, a lower dose of doxorubicin (3×4 mg/kg body weight) was combined with a lower dose of DOXO-EMCH (3×12 mg/kg body weight doxorubicin equivalents) wherein the DOXO-EMCH was administered 6 h prior to doxorubicin on the respective days of administration (cf. Table 1).
Experimental Procedure. […] For in vivo testing, female NMRI: nu/nu mice (Taconic, Denmark) were used. The mice were held in individually ventilaged cages (IVC) under sterile and standardized environmental conditions (25±2° C. room temperature, 50±10% relative humidity, 12 hour light-dark-rhythm). They received autoclaved food and bedding (ssniff, Soest, Germany) and acidified (pH 4.0) drinking water ad libitum. A2780 tumor fragments were transplanted subcutaneously (s.c.) into the left flank region of anaesthetized mice (40 mg/kg i.p. Radenarkon, Asta Medica, Frankfurt, Germany) on day 0. Mice were randomly distributed to the experimental groups (8 mice per group). When the tumors were grown to a palpable size, treatment was initiated. Mice were treated intravenously (i.v.) with either glucose phosphate buffer (10 mM sodium phosphate, 5% D-(+)-glucose, pH 5.8), doxorubicin (2×8 mg/kg body weight), or DOXO-EMCH (3×24 mg/kg body weight doxorubicin equivalents), or a combination of DOXO-EMCH (3×12 mg/kg body weight doxorubicin equivalents) and doxorubicin (3×4 mg/kg body weight) with a 6 hour interval on the day of administration. DOXO-EMCH was dissolved in 10 mM sodium phosphate, 5% D-(+)-glucose, pH 5.8. The compounds were injected intravenously at weekly intervals on days 6 and 13 and on days 6, 13 and 20 for the remaining compounds. The injection volume was 0.2 ml/20 g body weight. Tumor size was measured twice weekly with a caliper-like instrument in two dimensions. Individual tumor volumes (V) were calculated by the formula V=(length×[width]2)/2 and related to the values on the first day of treatment (relative tumor volume, RTV). Statistical analysis was performed with the U-test (Mann and Whitney) with p<0.05. The body weight of mice was determined every 3 to 4 days.

Data set [2] in a line: Maximum tolerated dose in nude mice. As to conditions: 2×12 mg/kg body weight. The class given is in vivo.
Setting [3] is: i.v., doxorubicin 8 mg/kg days 6, 13, DOXO-EMCH 24 mg/kg days 6, 13, 20, combination 4 + 12 mg/kg days 6, 13, 20.
The mark [4] stands for this setting: DOXO-EMCH 3×24 mg/kg, combination DOXO-EMCH 3×12 + doxorubicin 3×4 mg/kg.

With `COc1cccc2c1C(=O)c1c(O)c3c(c(O)c1C2=O)CC(O)(C(CO)=NNC(=O)CCCCCN1C(=O)C=CC1=O)CC3OC1CC(N)C(O)C(C)O1` (stereo not drawn) [DOXO-EMCH, 6-maleimidocaproyl(hydrazone) derivative of doxorubicin], in data set [1] (setting [3]), the toxic death is 0, the “RTV day 20 (relative tumor volume)” value was found to be 0.2 and the “RTV day 30 (relative tumor volume)” value is on record as 0.1*. Besides, the body weight loss result in data set [1] (DOXO-EMCH 3×24 mg/kg, after day 37, some animals died or were killed) was “over 30%”. Moreover, in data set [1] (setting [4]), the “duration of tumor remissions” value is reported as “up to 37 days” and the “antitumor efficacy (in words)” value is given as “pronounced antitumor effect”. In addition, in data set [1] (day of value in brackets in the cell, i.v., doxorubicin 8 mg/kg days 6, 13, DOXO-EMCH 24 mg/kg days 6, 13, 20, combination 4 + 12 mg/kg days 6, 13, 20), the “BWC [%] (body weight change)” value is listed as −31 (d37) %.
`COc1cccc2c1C(=O)c1c(O)c3c(c(O)c1C2=O)C[C@@](O)(C(=O)CO)C[C@@H]3O[C@H]1C[C@H](N)[C@H](O)[C@H](C)O1` [Doxorubicin, doxorubicin, reference compound]: the “toxicity at doses higher than MTD” value in data set [2] was “unacceptable toxicity and mortality”. In data set [1] (setting [3]), the toxic death was determined as 0, the “RTV day 20 (relative tumor volume)” value turned out to be 7.4 and the “RTV day 30 (relative tumor volume)” value amounted to 23.9. Moreover, the “antitumor efficacy (in words)” value in data set [1] (setting [4]) is “moderate antitumor efficacy”.
